Converted amounts (≈) assume the structure as drawn. Non-standard residues stand in square brackets, D forms with d. Residues, ends and D or L forms follow the SMILES beside them. Gly(N-2-aminoethyl) = NCCNCC(=O)O; Nspe = C[C@H](NCC(=O)O)c1ccccc1; Nphe = O=C(O)CNCc1ccccc1; Nlys = NCCCCNCC(=O)O
How the values were obtained:
[1] = Average hydrophobicity by analytical reverse-phase HPLC retention; format: physicochemical; details: for RP-HPLC Retention (% MeCN): Supplement table 4 (chemical and physical data for peptoid library), % MeCN at elution in RP-HPLC; for RP-HPLC Retention: Table S3, representative analytical RP-HPLC traces, SB-Analytical ODH-S column 100 x 1.6 mm, 3.5 µm, 0-100% solvent B over 30 min at 220 nm, A = 95% H2O, 0.05% TFA, B = 95% MeCN, 0.03% TFA
Description: (§1) To examine the average hydrophobicity of the peptoids, the retention time for from reverse‐phase HPLC was determined on a C18 column using acetonitrile and water, with 0.1% TFA (see Figure 3A). To find log D values, partitioning experiments were carried out, as illustrated by Figure 2. A peptoid solution (between 10 and 100 µM) in PBS was added to an equal volume of octanol and the system allowed to equilibrate under gentle agitation for ∼150 h (as 48 h was not found to be sufficient for the system to reach equilibrium). At this point it is assumed that the peptoid has partitioned between these two phases, such as to minimise its free energy.
Preparative RP‐HPLC was performed with a semi‐preparative Perkin Elmer Series 200 lc pump fitted with a 785A UV/Vis detector using a SB‐Analytical ODH‐S optimal column (250 mm × 10 mm, 5 µm); flow rate 2 mL min^−1; λ = 250 nm, typical linear gradient elution 0–50% of solvent B over 60 min (A = 0.1% TFA in 95% H2O and 5% MeCN, B = 0.1% TFA in 5% H2O and 95% MeCN). Analytical RP‐HPLC was performed with a Perkin Elmer Series 200 LC pump fitted with a Series 200 UV/Vis detector using a SB‐Analytical ODH‐S optimal column (100 mm × 1.6 mm, 3.5 µm); flow rate 1 mL min^−1; λ = 220 nm, linear gradient elution 0–100% of solvent B over 30 min (A = 0.05% TFA, 95% H2O, 5% MeCN, B = 0.03% TFA, 5% H2O, 95% MeCN).
Preparative RP-HPLC was performed with a semi-preparative Perkin Elmer Series 200 lc pump fitted with a 785A UV/Vis detector using a SB-Analytical ODH-S optimal column (250 × 10 mm, 5 µm); flow rate 2 ml min^−1; λ = 250 nm, typical linear gradient elution 0-50% of solvent B over 60 min (A = 0.1% TFA in 95% H2O and 5% MeCN, B = 0.1% TFA in 5% H2O and 95% MeCN). Analytical RP-HPLC was performed with a Perkin Elmer Series 200 LC pump fitted with a Series 200 UV/Vis detector using a SB-Analytical ODH-S optimal column (100 × 1.6 mm, 3.5 µm); flow rate 1 ml min^−1; λ = 220 nm, linear gradient elution 0-100% of solvent B over 30 min (A = 0.05% TFA, 95% H2O, 5% MeCN, B = 0.03% TFA, 5% H2O, 95% MeCN).
Table S3. Data from analytical RP-HPLC for representative compounds of this peptoid library. Analytical HPLC gradient: 0 – 100% solvent B over 30 min at 220 nm (where solvent A = 95% H2O, 5% MeCN, 0.05 % TFA; solvent B = 95% MeCN, 5% H2O, 0.03% TFA).

S. aureus = format: cell-based; details: 16 h
Description: (§2) Bacterial cultures were prepared by streaking the bacterial strain from a 4°C- or frozen stock culture to single colonies onto agar plates (containing the appropriate antibiotic for strains carrying antibiotic resistance plasmids) with an inoculation loop, followed by overnight incubation at 37 °C.
(§3) Primary overnight (o/n) cultures were prepared by inoculating a single colony from a streak plate into 5 mL of LB broth in a screw-capped culture tube, that was placed on a tube rotator at 37 °C (or 30 °C for sensitive strains) for overnight incubation. Before the usage of stock cultures the strains genotype were checked. Primary stocks were stored at 4°C for up to 6 weeks and always replaced from fresh colonies.
(§4) Fresh cultures used for experiments contained 0.1-0.5 mL o/n culture diluted into 8 mL of fresh medium in a standard test tube. Placed in a shaking water bath or on a tube rotator the bacteria were grown at the required temperature to the required cell density. Frozen stock cultures used for long term storage that can remain viable for 10 years were prepared by mixing 2.5 mL fresh o/n culture with 1.5 mL sterile 80% glycerol in a 5 mL sterile blood tube and stored at -20 °C.
(§5) MIC values were attained according to the previously described protocol4 and were conducted in 96-well plates (Costar, Fisher Scientific). Using the pre-prepared cultures, an innoculum density of 0.07 at 650 nm was set by comparing the absorbance with 0.5 MacFarland standard (240 μM BaCl2 in 0.18 M H2SO4). The innoculum was then diluted down ten-fold with Iso-sensitest broth (Oxoid, ThermoScientific) before use. Peptoids were initially dissolved in DMSO (5 mM) and then diluted further with Iso-sensitest broth to achieve a concentration range of 4 – 200 µM using 1 : 2 serial dilutions. 50 μl of innoculum and 50 μL of peptoid solution were added to each test well (final concentration range of 2 – 100 µM). Positive control containing only innoculum and Iso-sensitest broth; negative control containing inoculum and serial dilutions of ampicillin (from 250 microgram/mL to 2 microgram per mL); DMSO control containing innoculum and serial dilutions of DMSO; and Iso-sensitest broth were used as a sterile control. […] Quantitative data was attained from absorbance values using a microplate reader.

E. coli = format: cell-based; details: 16 h
Description: as §2, §3, §4, §5

[2] = log D by partitioning experiment in octanol and PBS; format: physicochemical; details: pH 7.4
Description: as §1
A combination of UV spectrometry and dynamic light scattering were used to determine that no aggregation was taking place in either phase (see Supporting Information). The peptoid concentrations of both phases were then determined using UV–Vis spectroscopy and the logarithm of the ratio of […] (log D) was calculated (Figure 3B). […]
Partition experiments were carried out by putting 450 µL of octanol in contact with 450 µL of PBS, which contained between […] of peptoid. Each peptoid was measured in triplicate. […] The concentration of peptoid remaining in the PBS and the octanol was measured individually using the phenylalanine peak as before. […]

Q: With `NCCCCNCC(=O)N(CC(=O)N(CC(=O)N(CCCCN)CC(=O)N(CC(=O)N(CC(=O)N(CCCCN)CC(=O)N(CC(=O)N(CC(=O)N(CCCCN)CC(=O)N(CC(=O)N(CC(N)=O)Cc1ccccc1)Cc1ccccc1)Cc1ccccc1)Cc1ccccc1)Cc1ccccc1)Cc1ccccc1)Cc1ccccc1)Cc1ccccc1` [Peptoid 1] (H-[Nlys][Nphe][Nphe][Nlys][Nphe][Nphe][Nlys][Nphe][Nphe][Nlys][Nphe][Nphe]-NH2) as the compound, how does the “RP-HPLC Retention (% MeCN)” value [1] read?
A: Its value is 37 % MeCN.

Q: For `NCCCCNCC(=O)N(CC(=O)N(CC(=O)N(CCCCN)CC(=O)N(CC(=O)N(CC(=O)N(CCCCN)CC(=O)N(CC(=O)N(CC(N)=O)Cc1ccccc1)Cc1ccccc1)Cc1ccccc1)Cc1ccccc1)Cc1ccccc1)Cc1ccccc1` [Peptoid 2], which “RP-HPLC Retention (% MeCN)” value [1] is on record?
A: The value was 34 % MeCN.

Q: For `NCCCCNCC(=O)N(CC(=O)N(CC(=O)N(CCCCN)CC(=O)N(CC(=O)N(CC(N)=O)Cc1ccccc1)Cc1ccccc1)Cc1ccccc1)Cc1ccccc1` [Peptoid 3] (H-[Nlys][Nphe][Nphe][Nlys][Nphe][Nphe]-NH2), which “RP-HPLC Retention (% MeCN)” value [1] is on record?
A: Its value is 31 % MeCN.

Q: With `C[C@@H](c1ccccc1)N(CC(N)=O)C(=O)CN(C(=O)CN(CCCCN)C(=O)CN(C(=O)CN(C(=O)CN(CCCCN)C(=O)CN(C(=O)CN(C(=O)CNCCCCN)[C@@H](C)c1ccccc1)[C@@H](C)c1ccccc1)[C@@H](C)c1ccccc1)[C@@H](C)c1ccccc1)[C@@H](C)c1ccccc1` [Peptoid 5] (H-[Nlys][Nspe][Nspe][Nlys][Nspe][Nspe][Nlys][Nspe][Nspe]-NH2) as the compound, how does the “RP-HPLC Retention (% MeCN)” value [1] read?
A: Its value is 37 % MeCN.

Q: What about the “RP-HPLC Retention” value ([1]; 5% MeCN, 5% H2O) of the same compound?
A: Its value is 15.3 min.

Q: Which “RP-HPLC Retention (% MeCN)” value [1] does the source give for `C[C@@H](c1ccccc1)N(CC(N)=O)C(=O)CN(C(=O)CN(CCCCN)C(=O)CN(C(=O)CN(C(=O)CNCCCCN)[C@@H](C)c1ccccc1)[C@@H](C)c1ccccc1)[C@@H](C)c1ccccc1` [Peptoid 6] (H-[Nlys][Nspe][Nspe][Nlys][Nspe][Nspe]-NH2) here?
A: Its value is 33 % MeCN.

Q: What about the “RP-HPLC Retention” value ([1]; 5% MeCN, 5% H2O) of the same compound?
A: Its value is 14.4 min.

Q: Which results are given for `NCCNCC(=O)N(CC(=O)N(CC(=O)N(CCN)CC(=O)N(CC(=O)N(CC(=O)N(CCN)CC(=O)N(CC(=O)N(CC(=O)N(CCN)CC(=O)N(CC(=O)N(CC(N)=O)Cc1ccccc1)Cc1ccccc1)Cc1ccccc1)Cc1ccccc1)Cc1ccccc1)Cc1ccccc1)Cc1ccccc1)Cc1ccccc1` [Peptoid 7] (H-[Gly(N-2-aminoethyl)][Nphe][Nphe][Gly(N-2-aminoethyl)][Nphe][Nphe][Gly(N-2-aminoethyl)][Nphe][Nphe][Gly(N-2-aminoethyl)][Nphe][Nphe]-NH2)?
A: RP-HPLC Retention (% MeCN) [1]: 37 % MeCN; RP-HPLC Retention ([1]; 5% MeCN, 5% H2O): 15.2 min

Q: With `NCCNCC(=O)N(CC(=O)N(CC(=O)N(CCN)CC(=O)N(CC(=O)N(CC(=O)N(CCN)CC(=O)N(CC(=O)N(CC(N)=O)Cc1ccccc1)Cc1ccccc1)Cc1ccccc1)Cc1ccccc1)Cc1ccccc1)Cc1ccccc1` [Peptoid 8] (H-[Gly(N-2-aminoethyl)][Nphe][Nphe][Gly(N-2-aminoethyl)][Nphe][Nphe][Gly(N-2-aminoethyl)][Nphe][Nphe]-NH2) as the compound, how does the “RP-HPLC Retention (% MeCN)” value [1] read?
A: The value was 34 % MeCN.

Q: With `NCCNCC(=O)N(CC(=O)N(CC(=O)N(CCN)CC(=O)N(CC(=O)N(CC(N)=O)Cc1ccccc1)Cc1ccccc1)Cc1ccccc1)Cc1ccccc1` [Peptoid 9] (H-[Gly(N-2-aminoethyl)][Nphe][Nphe][Gly(N-2-aminoethyl)][Nphe][Nphe]-NH2) as the compound, how does the “RP-HPLC Retention (% MeCN)” value [1] read?
A: Its value is 30 % MeCN.

Q: For `C[C@@H](c1ccccc1)N(CC(N)=O)C(=O)CN(C(=O)CN(CCN)C(=O)CN(C(=O)CN(C(=O)CN(CCN)C(=O)CN(C(=O)CN(C(=O)CN(CCN)C(=O)CN(C(=O)CN(C(=O)CNCCN)[C@@H](C)c1ccccc1)[C@@H](C)c1ccccc1)[C@@H](C)c1ccccc1)[C@@H](C)c1ccccc1)[C@@H](C)c1ccccc1)[C@@H](C)c1ccccc1)[C@@H](C)c1ccccc1` [Peptoid 10] (H-[Gly(N-2-aminoethyl)][Nspe][Nspe][Gly(N-2-aminoethyl)][Nspe][Nspe][Gly(N-2-aminoethyl)][Nspe][Nspe][Gly(N-2-aminoethyl)][Nspe][Nspe]-NH2), which “RP-HPLC Retention (% MeCN)” value [1] is on record?
A: The value was 41 % MeCN.

Q: What about the “HPLC RT” value ([1]; Table 2 / main text, chromatographic, RP-HPLC C18 retention time as measure of average hydrophobicity, gradient 0-100% solvent B over 30 min, 220 nm, 1 mL/min, A = 0.05% TFA, 95% H2O, 5% MeCN, B = 0.03% TFA, 5% H2O, 95% MeCN, around pH 2.2) of the same compound?
A: The value was 16.7 min.

Q: And the “MIC S. aureus” value (S. aureus)?
A: Its value is 2 µM (≈ 3.41 µg/mL).

Q: What about the “MIC E. coli” value (E. coli) of the same compound?
A: The value was greater than 100 µM.

Q: With `C[C@@H](c1ccccc1)N(CC(N)=O)C(=O)CN(C(=O)CN(CCN)C(=O)CN(C(=O)CN(C(=O)CN(CCN)C(=O)CN(C(=O)CN(C(=O)CNCCN)[C@@H](C)c1ccccc1)[C@@H](C)c1ccccc1)[C@@H](C)c1ccccc1)[C@@H](C)c1ccccc1)[C@@H](C)c1ccccc1` [Peptoid 11] (H-[Gly(N-2-aminoethyl)][Nspe][Nspe][Gly(N-2-aminoethyl)][Nspe][Nspe][Gly(N-2-aminoethyl)][Nspe][Nspe]-NH2) as the compound, how does the “RP-HPLC Retention (% MeCN)” value [1] read?
A: The value was 39 % MeCN.

Q: And the “log D” value [2]?
A: Its value is “negative”.

Q: With `C[C@@H](c1ccccc1)N(CC(N)=O)C(=O)CN(C(=O)CN(CCN)C(=O)CN(C(=O)CN(C(=O)CNCCN)[C@@H](C)c1ccccc1)[C@@H](C)c1ccccc1)[C@@H](C)c1ccccc1` [Peptoid 12] as the compound, how does the “RP-HPLC Retention (% MeCN)” value [1] read?
A: Its value is 33 % MeCN.

— PMC5519928, “Log D versus HPLC derived hydrophobicity: The development of predictive tools to aid in the rational design of bioactive peptoids” (Biopolymers, 2017)
